Test results taken from patent US20150140002A1, “USE OF A PCSK9 INHIBITOR TO TREAT […]” (Sanofi, priority 2013, published 2015).

Columns and labels:
[1] = Example 2: serum mAb316P concentration (ELISA); type: in vivo, human
Method: If needed, total and free PCSK9 concentrations could be measured from the same PK sample.
To collect information on the absorption phase, an optional PK sample was collected at 5 days (±2) after the week 22 IMP injection or at 5 days (±2) after any subsequent IMP injection while the subject was on treatment.
The lower limit of quantification (LLQ) for this assay is 0.078 μg/mL.

[2] = test system: patients with primary hypercholesterolemia (heFH and non-FH) who are intolerant to statins; test: Example 3: randomized double-blind trial mAb316P versus ezetimibe (atorvastatin calibrator arm), lipid parameters; type: in vivo, human
Text: The present study was a randomized, double-blind, double-dummy, active-controlled, parallel-group, multi-national, multi-center study in patients with primary hypercholesterolemia and moderate, high, or very high CV risk who are intolerant to statins. The study design is illustrated in FIG. 7.
Primary Efficacy Endpoint: The primary efficacy endpoint was the percent change in calculated LDL-C from baseline to week 24, which was defined as: 100× (calculated LDL-C value at week 24—calculated LDL-C value at baseline)/calculated LDL-C value at baseline. A baseline LDL-C value was needed for each patient as the baseline calculated LDL-C value was the last LDL-C level obtained before the first double-blind study drug injection.
Total-C, HDL-C, TG, ApoB, ApoA-1, and Lp(a) were directly measured by a central laboratory as per a predetermined schedule. Low-density lipoprotein cholesterol was calculated using the Friedewald formula at all visits (except week −15 and the follow-up visit). If TG values exceeded 400 mg/dL (4.52 mmol/L), then the central lab measured (via the beta quantification method) the LDL-C rather than calculate it. Non-HDL-C was calculated by subtracting HDL-C from the total-C. Ratio ApoB/ApoA-1 was calculated.
The double-blind period efficacy endpoint analysis results in the order of statistical hierarchical testing as specified in the above protocol (with multiple testing controlled at the 0.05 significance level) is set forth in Table 12. Primary and key secondary efficacy analyses were performed comparing mAb316P-treated patients to ezetimibe-treated patients. For clarification, the ITT analysis is defined for patients in the ITT population and includes all endpoint assessments in an analysis window, regardless of study treatment dosing status (i.e. includes post-treatment assessments). The on-treatment analysis is defined for patients in the mITT population and includes all endpoint assessments from the first double-blind study drug (capsule or injection, whichever comes first) up to 21 days after the last double-blind study drug injection, or 3 days after the last capsule intake, whichever came first (i.e. includes assessments in the efficacy treatment period). Note: A result is statistically significant if the p-value is s 0.05, in the order of the hierarchical testing.

[3] = test system: patients with hypercholesterolemia at moderate cardiovascular (CV) risk; details: in vivo
Text: The clinical laboratory data consisted of urinalysis and blood analysis, hematology (RBC count, red blood cell distribution width (RDW), reticulocyte count, hemoglobin, hematocrit, platelets, WBC count with differential blood count), standard chemistry (glucose, sodium, potassium, chloride, bicarbonate, calcium, phosphorous, urea nitrogen, creatinine, uric acid, total protein, LDH, albumin, γ Glutamyl Transferase [γGT]), Hepatitis C antibody, liver panel (ALT, AST, ALP, and total bilirubin), and CPK.
Safety endpoints—Vital signs measurement: Vital signs included: HR, systolic and diastolic BP in sitting position.
The safety analysis included all randomized and treated patients. Safety data were analyzed by descriptive statistics.

[4] = test system: patients with primary hypercholesterolemia (heFH and non-FH) who are intolerant to statins; details: in vivo

In the case of “mAb316P: human anti-PCSK9 antibody; heavy chain SEQ ID NO:5, light chain SEQ ID NO:9; HCVR SEQ ID NO:1, LCVR SEQ ID NO:6”, the “serum MAb316P Ctrough, mean (SD)” value ([1]; Week 4, non-uptitrated (n = 32)) is reported as 5784.7 (2456.4) ng/mL, the “serum MAb316P Ctrough, mean (SD)” value ([1]; Week 4, uptitrated at Week 12 (n = 14)) is reported as 4533.9 (3996.5) ng/mL and the “serum MAb316P Ctrough, mean (SD)” value ([1]; Week 12, non-uptitrated (n = 32)) is reported as 5979.0 (2780.3) ng/mL. The “serum MAb316P Ctrough, mean (SD)” value ([1]; Week 12, uptitrated at Week 12 (n = 14)) was 5702.9 (4816.4) ng/mL, the “serum MAb316P Ctrough, mean (SD)” value ([1]; Week 24, non-uptitrated, 75 mg Q2W (n = 32)) was 6991.4 (4418.4) ng/mL and the “serum MAb316P Ctrough, mean (SD)” value ([1]; Week 24, uptitrated to 150 mg Q2W at Week 12 (n = 14)) was 14772.2 (10201.7) ng/mL. For the same substance, the “change of serum mAb316P levels after uptitration” value ([1]; patients uptitrated at Week 12 (75 to 150 mg Q2W)) was “approximately doubled”, the “Apo A-1 Diff mAb316P vs ezetimibe” value ([2]; WK12, ITT analysis) was “Diff: 1.6%” and the “Apo A-1 LS mean percent change from baseline” value ([2]; WK12, ITT analysis) was “LS mean: 5.5%”. The “Apo B Diff mAb316P vs ezetimibe” value ([2]; WK12, ITT analysis) was “Diff: −24.5%”, the “Apo B LS mean percent change from baseline” value ([2]; WK12, ITT analysis) was “LS mean: −36.1%” and the “Fasting Triglycerides Diff mAb316P vs ezetimibe” value ([2]; WK12, ITT analysis) was “Diff: 1.3%”. For the same substance, the “Fasting Triglycerides LS mean percent change from baseline” value ([2]; WK12, ITT analysis) was “LS mean: −8.1%”, the “HDL-C Diff mAb316P vs ezetimibe” value ([2]; WK12, ITT analysis) was “Diff: 1.4%” and the “HDL-C LS mean percent change from baseline” value ([2]; WK12, ITT analysis) was “LS mean: 9.0%”. The “LDL-C Diff mAb316P vs ezetimibe” value ([2]; WK12, ITT analysis) was “Diff: −31.5%”, the “LDL-C LS mean percent change from baseline” value (shortened to “LDL-C LS mean percent change”) ([2]; WK12, ITT analysis) was “LS mean: −47.0%” and the “Lp(a) Diff mAb316P vs ezetimibe” value ([2]; WK12, ITT analysis) was “Diff: −17.2%”. For the same substance, the “Lp(a) LS mean percent change from baseline” value ([2]; WK12, ITT analysis) was “LS mean: −21.7%”, the “Non-HDL-C Diff mAb316P vs ezetimibe” value ([2]; WK12, ITT analysis) was “Diff: −25.7%” and the “Non-HDL-C LS mean percent change from baseline” value ([2]; WK12, ITT analysis) was “LS mean: −25.7%”. For the same substance, the “Total Cholesterol Diff mAb316P vs ezetimibe” value ([2]; WK12, ITT analysis) was “Diff: −21.1%”, the “Total Cholesterol LS mean percent change from baseline” value ([2]; WK12, ITT analysis) was “LS mean: −32.7%” and the “LDL-C Diff mAb316P vs ezetimibe” value ([2]; WK12, on-treatment analysis) was “Diff: −33.1%”. For the same substance, the “LDL-C LS mean percent change” value ([2]; WK12, on-treatment analysis) was “LS mean: −51.2%”, the “Apo A-1 Diff mAb316P vs ezetimibe” value ([2]; WK24, ITT analysis) was “Diff: 1.9%” and the “Apo A-1 LS mean percent change from baseline” value ([2]; WK24, ITT analysis) was “LS mean: 4.8%”. The “Fasting Triglycerides Diff mAb316P vs ezetimibe” value ([2]; WK24, ITT analysis) was “Diff: −5.6%”, the “Fasting Triglycerides LS mean percent change from baseline” value ([2]; WK24, ITT analysis) was “LS mean: −9.2%” and the “HDL-C Diff mAb316P vs ezetimibe” value ([2]; WK24, ITT analysis) was “Diff: 0.9%”. The “HDL-C LS mean percent change from baseline” value ([2]; WK24, ITT analysis) was “LS mean: 7.7%”, the “Proportion with LDL-C <70 mg/dL” value ([2]; WK24, ITT analysis) was “Proportion = 32.5%” and the “Proportion with Very High CV LDL-C <70 mg/dL OR Moderate/High CV LDL-C <100 mg/dL” value ([2]; WK24, ITT analysis) was “Proportion = 41.3%”. The “Total Cholesterol Diff mAb316P vs ezetimibe” value ([2]; WK24, ITT analysis) was “Diff: −20.8%”, the “Total Cholesterol LS mean percent change from baseline” value ([2]; WK24, ITT analysis) was “LS mean: −31.8%” and the “Apo B Diff mAb316P vs ezetimibe” value ([2]; WK24, on-treatment analysis) was “Diff: −28.2%”. The “Apo B LS mean percent change from baseline” value ([2]; WK24, on-treatment analysis) was “LS mean: −42.6%”, the “LDL-C Diff mAb316P vs ezetimibe” value ([2]; WK24, on-treatment analysis) was “Diff: −35.1%” and the “LDL-C LS mean percent change” value ([2]; WK24, on-treatment analysis) was “LS mean: −52.2%”. The “Non-HDL-C Diff mAb316P vs ezetimibe” value ([2]; WK24, on-treatment analysis) was “Diff: −29.8%”, the “Non-HDL-C LS mean percent change from baseline” value ([2]; WK24, on-treatment analysis) was “LS mean: −46.9%” and the “Proportion with LDL-C <70 mg/dL” value ([2]; WK24, on-treatment analysis) was “Proportion = 39.0%”. The “Proportion with Very High CV LDL-C <70 mg/dL OR Moderate/High CV LDL-C <100 mg/dL” value ([2]; WK24, on-treatment analysis) was “Proportion = 50.4%”, the “patients who reached LDL-C goal at week 24” value ([2]; goal <70 mg/dL very high risk, <100 mg/dL moderate and high risk) was 41.9% and the “LS mean LDL-C value at week 24” value ([2]; in vivo) was 108.5 mg/dL. The “change in LDL-C level from baseline” value ([2]; week 24) was -84 mg/dL, the TEAE class infection [3] was 42.3% and the “Cardiac disorders (SOC)” value [4] was 10 (7.9%) patients (%). For the same substance, the “Ear and labyrinth disorders (SOC)” value [4] was 8 (6.3%) patients (%), the “General allergic TEAEs (MedDRA SMQ Hypersensitivity)” value [4] was 12 (9.5%) patients (%) and the “Investigations (SOC)” value [4] was 9 (7.1%) patients (%). The “Psychiatric disorders (SOC)” value [4] was 9 (7.1%) patients (%), the “Skeletal muscle-related TEAEs (CMQ preferred term)” value [4] was 34 (27.0%) patients (%) and the TEAEs [4] was 104 (82.5%) patients (%). For the same substance, the “Treatment-emergent SAEs” value [4] was 12 (9.5%) patients (%) and the “Treatment-emergent injection site reactions (ISRs)” value [4] was 6 (4.8%) patients (%).
